In general, IC50 refers to the midpoint of a concentration-inhibition curve. Usually AUC(0-inf) stands for the area under the concentration-time curve extrapolated to infinity. As a reminder, the AUC(0-t) is the area under the concentration-time curve up to a stated or last time point. As a reminder, the clearance is a measure of how efficiently the substance is removed, as volume per time. As a reminder, the half-life is the time in which the quantity being followed falls by half.

These results are taken from patent US10570179B2, “Substituted urea depsipeptide analogs as activators of the CLPP endopeptidase” (priority 2016, dated 2020).

Data set [1] in a line: Cytotoxicity assay (CellTiter-Glo cell viability). Format: cell-based. The settings on record: African green monkey. As for the experimental part: Cytotoxicity was determined by determining the effect of compounds on cell viability. Vero (kidney epithelial cells; ATCC CCL-81) monolayers were trypsinized and 5000 cells/well were seeded (10-15% confluency) into white-wall, flat bottom 96 well microwell plates (Corning) using enriched Dulbecco's Modified Eagle's Medium (Hyclone: DMEM/High Glucose) containing 10% Fetal Bovine Serum (ATCC-30-2020). Plates were incubated overnight at 37° C. in the presence of 5% CO2. Drug-free media was then replaced with media containing serial dilutions of test compound or DMSO carrier. After an additional 72 hours of incubation, viability was indirectly measured using the CellTiter-Glo® Luminescent Cell Viability (Promega) assay. Assay plates were read at peak emission wavelength of 560 nm using a EnVision® Multilabel Plate Reader (Perkin Elmer) or PHERAstar FS Multilabel reader (BMG, Cary, N.C.). The concentration of test compounds that inhibited growth by 50% (IC50 value) was computed using nonlinear regression based fitting of inhibition curves using log [inhibitor] vs. response-variable slope (four parameters)—symmetrical equation, in GraphPad Prism version 6 [GraphPad Software, La Jolla, Calif. USA, www.graphpad.com]. For each experiment, compounds were tested in duplicate. IC50 values presented are the range of two biologically independent experiments.
On the technique in general: Cellular ATP, detected with luciferase, serves as a proxy for viable cell number.

A further data set is described as follows: Plasma pharmacokinetics. Format: in vivo, male BALB/c mice. The following applies: male, BALB/c, mouse, in vivo, iv.
Data set [2] in a line: Microsomal metabolic stability. It counts as in vitro ADME, mouse. The settings on record: CD-1, mouse, pH 7.4. The essentials: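 CD-1 mouse liver microsomes (0.6381 mg/mL protein microsomal solution, 0.1 M potassium phosphate pH 7.4 with EDTA) were incubated with compound and an NADPH-regenerating system at 37 °C, in triplicate. Acetonitrile/warfarin quench at 0, 15, 30, 60, 120 and 240 min, then LCMS. Half-life came from a first-order least-squares fit.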

The nature of the next data set: Plasma stability assay. It counts as in vitro ADME, human. The following applies: human, 10 μM. The gist of the method: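 Compounds at 10 μM final in human or mouse plasma, incubated at 37 °C and sampled at 0, 3, 24 and 48 h in triplicate. Reactions quenched with cold acetonitrile containing warfarin internal standard; parent measured by LC-MS. Half-life from least-squares first-order fit.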

Another data set concerns B. subtilis. The data set is described as follows: Minimal inhibitory concentration, microbroth dilution. It counts as cell-based. The following applies: Bacillus subtilis; MIC; read-out: Minimal Inhibitory Concentrations (μM) B. subtilis. The gist of the method:
(§1)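 Following CLSI M7-A7 microbroth dilution, twofold serial dilutions of compound (top final concentration 200 μM) were combined with an equal volume of broth inoculum at about 10^5 cfu/mL. Plates were incubated aerobically at 37 °C overnight, and the MIC was the lowest concentration preventing visible growth.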

For another data set, the system named is S. pneumoniae. The description is as above. It counts as cell-based. The settings on record: Streptococcus pneumoniae; MIC; read-out: Minimal Inhibitory Concentrations (μM) S. pneumoniae. The gist of the method:
as §1

For a further data set, the system named is S. pyogenes. Described as above. The settings on record: Streptococcus pyogenes; MIC; read-out: Minimal Inhibitory Concentrations (μM) S. pyogenes. It counts as cell-based. The gist of the method: as §1

≈ marks a conversion by molar mass, not a printed value. Numbered stars: 1 amine (or outer) side, 2 acyl side, 3 side chain; on linkers, the order of the positions; unused ones are H or OH. Bridge positions count the residues as written; N and C are the ends. Square brackets hold non-standard residues; d marks the D form. Peptide text beside a SMILES is read from it. * marks the point of attachment. Piperazine(2S-CO,4-Me) = CN1CCN[C@H](C(=O)O)C1; Phe(3-Me) = Cc1cccc(C[C@H](N)C(=O)O)c1; NH(4-Cl-2-F-phenyl) = Fc1cc(Cl)ccc1N*; Pro(4R-Me) = C[C@H]1CN[C@H](C(=O)O)C1; aThr = C[C@H](O)[C@H](N)C(=O)O; CO = O=C([*:1])[*:2]

Compound `Cc1cccc(C[C@H](NC(=O)Nc2ccc(Cl)cc2F)C(=O)N[C@@H]2C(=O)N3CCC[C@H]3C(=O)N3CCN(C)C[C@H]3C(=O)N[C@@H](C)C(=O)N3C[C@H](C)C[C@H]3C(=O)O[C@H]2C)c1` [Compound 11, (S)-2-(3-(4-CHLORO-2-FLUOROPHENYL)UREIDO)-N-((6AS,12S,13S,15AS,17R,21S,23AS)-2,13,17,21-TETRAMETHYL-6,11,15,20,23-PENTAOXOOCTADECAHYDRO-2H,6H,11H,15H-PYRAZINO[2,1-I]DIPYRROLO[2,1-C:2′,1′-L][1]OXA[4,7,10,13]TETRAAZACYCLOHEXADECIN-12-YL)-3-(M-TOLYL)PROPANAMIDE] ({NH(4-Cl-2-F-phenyl)-CO}-[Phe(3-Me)][aThr]P[Piperazine(2S-CO,4-Me)]A[Pro(4R-Me)]; ester 2-C) registered an IC50 at 72 h in data set [1] greater than 10 µM. For the same compound, in the data set “Plasma pharmacokinetics”, the AUC(0-inf) came to 5040 ng·h/mL, the AUC(0-t) stood at 5000 ng·h/mL, the “C^0” value is 9127.72 ng/mL and the clearance came to 33.1 mL/min/kg. In the data set “Plasma pharmacokinetics”, this compound showed a half-life of 1.35 h. Moreover, the Vd in “Plasma pharmacokinetics” (10 mg/kg, Route i.v., read-out: Vss) is 2.28 L/kg. The “Mouse” value in data set [2] was found to be 0.67 ± 0.07 h. In “Plasma stability assay”, the “Human” value stood at 44.21 h. In the data set with B. subtilis, the MIC was 0.078 µM (≈ 0.0655 µg/mL). Further, the MIC in the data set with S. pneumoniae came to 0.039 µM (≈ 0.0327 µg/mL). Moreover, the MIC in the data set with S. pyogenes was determined as 0.078 µM (≈ 0.0655 µg/mL).
